# Results as given in PubChem BioAssay AID437 (SGCStoCompounds, 2006).
# Target: Inositol-trisphosphate 3-kinase C (Homo sapiens) (UniProt Q96DU7)
# Assay: ITPKC binders by thermal stabilisation, biophysical, DSF, SYPRO orange, purified human protein (AID 437)
# Conditions: at 20 µM, protein 5.9 µM, buffer 300 mM NaCl, 50 mM Hepes, 10% glycerol, 2 mM TCEP pH 7.5, hits give high values
# Sequence of Inositol-trisphosphate 3-kinase C (Homo sapiens) (Q96DU7 whole entry, looked up): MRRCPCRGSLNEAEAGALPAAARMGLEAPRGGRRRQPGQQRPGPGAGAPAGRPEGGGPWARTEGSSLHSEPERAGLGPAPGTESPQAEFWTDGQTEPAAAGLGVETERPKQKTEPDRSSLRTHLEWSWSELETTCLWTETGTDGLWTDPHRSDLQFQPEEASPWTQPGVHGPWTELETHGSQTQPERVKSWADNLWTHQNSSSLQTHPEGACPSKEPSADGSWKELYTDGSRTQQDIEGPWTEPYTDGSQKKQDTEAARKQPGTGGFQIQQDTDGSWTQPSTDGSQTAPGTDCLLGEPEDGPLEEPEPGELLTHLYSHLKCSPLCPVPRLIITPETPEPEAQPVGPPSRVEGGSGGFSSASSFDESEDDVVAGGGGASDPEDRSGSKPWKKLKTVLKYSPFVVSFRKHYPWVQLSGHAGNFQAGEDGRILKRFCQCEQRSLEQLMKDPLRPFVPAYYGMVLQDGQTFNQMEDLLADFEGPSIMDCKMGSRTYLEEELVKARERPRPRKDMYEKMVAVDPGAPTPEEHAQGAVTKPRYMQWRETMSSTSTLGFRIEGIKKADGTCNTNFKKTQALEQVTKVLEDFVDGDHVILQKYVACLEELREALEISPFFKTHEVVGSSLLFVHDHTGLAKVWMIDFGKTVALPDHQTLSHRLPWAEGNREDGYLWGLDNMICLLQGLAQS
row,Tm shift [Celsius],SMILES
1,4.6,Brc1c(Br)c(Br)c2n[nH]nc2c1Br
2,4.7,Nc1ncnc2c1C(I)CN2[C@@H]1O[C@H](CO)C(O)C1O (some centres not stated)
3,13.3,O=C1c2c(O)cc(O)cc2OC(c2ccc(O)c(O)c2)C1O (configuration not stated)
4,3.1,O=C1Cc2c([nH]c3ccc(Br)cc23)-c2ccccc2N1
5,3,NC1=N/C(=C2/CCNC(=O)c3[nH]c(Br)cc32)C(=O)N1
6,4.2,CCOc1cc(/C=C(\C#N)CON)cc(CSc2ccccc2)c1O
7,5.6,C=S(C)c1ccc(CSc2nc(-c3ccc(F)cc3)c(-c3ccncc3)[nH]2)cc1 (configuration not stated)
8,5.2,NC1=CC2N=CN=C(Nc3cccc(Br)c3)C2C=C1N (configuration not stated)
9,3.3,CC(C)(C)c1nc2c3cc[nH]c(=O)c3c3cc(F)ccc3c2[nH]1
10,5.7,CNC(=O)c1cc(Oc2ccc(NC(=O)Nc3ccc(C)c(C(F)(F)F)c3)cc2)ccn1
11,3.7,NC(O)(O)c1ccc(N=Nc2c(O)[nH]c3ccc(Cl)cc23)cc1
12,6.4,O=c1c2ccccc2[nH]c(=S)n1CCN1CCC(=C(c2ccc(F)cc2)c2ccc(F)cc2)CC1
13,3.2,CN(C)S(O)(O)c1ccc2c(c1)/C(=C/c1cc3c([nH]1)CCCC3)C(=O)N2
14,6.6,COC1=CC(/C=C/C(=O)CC(=O)/C=C/c2ccc(O)c(OC)c2)=CCC1O (configuration not stated)
15,4.4,Oc1ccc(-c2nc(-c3ccc(F)cc3)c(-c3ccncc3)[nH]2)cc1
16,10.4,O=C1Nc2ccc(I)cc2/C1=C/c1cc(Br)c(O)c(Br)c1
17,3.3,O=c1c(-c2ccc(O)cc2)coc2cc(O)cc(O)c12
